Square brackets hold non-standard residues; d marks the D form. Peptide text beside a SMILES is read from it. * marks the point of attachment. Palmitoyl = CCCCCCCCCCCCCCCC(=O)*; X1 = NCCNCC(CNCCN)C(=O)*
Biological target: T1, human NTS1R (Homo sapiens, UniProt P30989)
T1 construct: Cell membrane homogenates from WiDr cells were collected; host or cells: WiDr human colorectal adenocarcinoma cells (membrane homogenates)
Test: Competition binding against [^125I]I-Tyr^3-NT in WiDr cell membranes
Conditions: for IC50: displacement of [^125I]I-Tyr^3-NT, WiDr cell membranes, 1 h at 22 °C, mean ± sd
Experimental: Cell membrane homogenates from WiDr cells were collected and stored in Tris/EDTA (10 mM Tris, 0.1 mM EDTA, pH 7.4) solution at −80 °C, as previously described. On the day of the experiment, the aliquots thereof were thawed, combined, and diluted in cold binding buffer (BB: 50 mM HEPES, 5.5 mM MgCl2, 0.1 mg/mL bacitracin, 1% w/v BSA, pH 7.4). A dilution series of each test peptide (10^−12–10^−5 M) and a fresh solution of [^125I]I-Tyr^3-NT (~40,000 cpm/70 μL, 214 pM) were prepared and kept on ice. In each RIA tube per placed on ice (in triplicate for each concentration point), the following ice-cold solutions were added: test peptide solution (30 μL), the [^125I]I-Tyr^3-NT radioligand (70 μL), and membrane homogenate (200 μL). Tubes were incubated under constant stirring for 1 h at 22 °C in an Incubator-Orbital Shaker (MPM Instr. Srl; Bernareggio, Italy). The incubation was terminated by placing the tubes on ice and adding ice-cold washing buffer (10 mM HEPES, 150 mM NaCl, pH 7.4). Samples were rapidly passed through Whatman GF/B filters (presoaked for 1 h in BB) on a 48-sample Brandel Cell Harvester (Adi Hassel Ingenieur Büro, Munich, Germany). Separate filters were measured for radioactivity on the γ-counter, and the half maximal inhibition concentration (IC50) was calculated applying a non-linear one-site model (GraphPad Prism Software 6.0, San Diego, CA, USA).

T1 sequence (P30989 whole entry): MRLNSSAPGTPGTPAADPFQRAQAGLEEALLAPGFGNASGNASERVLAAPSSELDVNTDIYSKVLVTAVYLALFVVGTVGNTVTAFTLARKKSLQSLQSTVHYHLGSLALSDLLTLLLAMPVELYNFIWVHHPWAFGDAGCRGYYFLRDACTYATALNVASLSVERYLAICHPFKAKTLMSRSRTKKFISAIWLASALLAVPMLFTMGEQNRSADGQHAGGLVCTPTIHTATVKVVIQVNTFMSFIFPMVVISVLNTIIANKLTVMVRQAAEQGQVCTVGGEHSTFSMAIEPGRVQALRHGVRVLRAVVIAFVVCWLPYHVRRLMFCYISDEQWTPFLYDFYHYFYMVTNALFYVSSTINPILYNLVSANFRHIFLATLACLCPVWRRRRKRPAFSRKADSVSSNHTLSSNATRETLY

SMILES | IC50 [nM] | drop of binding affinity to the NTS1R compared to DT1 (by a power of)
CCCCCCCCCCCCCCCC(=O)NCCCC[C@H](NC(=O)C(CNCCN)CNCCN)C(=O)N[C@@H](CCCNC(=N)N)C(=O)N[C@@H](CCCNC(=N)N)C(=O)N1CCC[C@H]1C(=O)N[C@@H](Cc1ccc(O)cc1)C(=O)N[C@H](C(=O)N[C@@H](CC(C)C)C(=O)O)[C@@H](C)CC [DT9] (X1-K(Palmitoyl)RRPYIL-OH) | 0.89 ± 0.7 | –
CC[C@H](C)[C@H](NC(=O)[C@H](Cc1ccc(O)cc1)NC(=O)[C@@H]1CCCN1C(=O)[C@H](CCCNC(=N)N)NC(=O)[C@H](CCCNC(=N)N)NC(=O)CNC(=O)C(CNCCN)CNCCN)C(=O)N[C@@H](CC(C)C)C(=O)N[C@H](CC(N)=O)C(=O)O [DT7, N4-Gly-Arg-Arg-Pro-Tyr-Ile-Leu-DAsn-OH] (X1-GRRPYIL[dN]-OH) | 29.1 ± 4.11 | ~100
